Bridge positions count the residues as written; N and C are the ends. Peptide text beside a SMILES is read from it.
Key:
integrin αvβ6 [1] = molecular target: T1, integrin αvβ6 (Homo sapiens, UniProt P06756+P18564); test: ELISA competition assay, integrin αvβ6 binding to LAP
integrin αvβ8 [2] = molecular target: T2, integrin αvβ8 (Homo sapiens, UniProt P06756+P26012); test: ELISA competition assay, integrin αvβ8 binding to LAP
integrin αvβ3 [3] = molecular target: T3, integrin αvβ3 (Homo sapiens, UniProt P05106+P06756); test: ELISA competition assay, integrin αvβ3; format: binding
integrin αvβ6 [4] = molecular target: T1, integrin αvβ6; test: AlphaLISA competition assay vs LAP, biotinylated αvβ6; format: binding
integrin αvβ8 [5] = molecular target: T2, integrin αvβ8; test: AlphaLISA competition assay vs LAP, biotinylated αvβ8; format: binding
integrin αvβ3 [6] = molecular target: T3, integrin αvβ3; test: AlphaLISA competition assay vs LAP, biotinylated αvβ3; format: binding
[7] = αvβ6 IC50, ELISA competition vs LAP, mean, n ≥ 3

Compound | IC50 (integrin αvβ6 [1]) [nM] | IC50 (integrin αvβ8 [2]) [nM] | IC50 (integrin αvβ3 [3]) [nM] | IC50 (integrin αvβ6 [1]; [7]) [nM] | IC50 (integrin αvβ6 [4]) [nM] | IC50 (integrin αvβ8 [5]) [nM] | IC50 (integrin αvβ3 [6]) [nM]
CC[C@H](C)[C@@H]1NC(=O)[C@H]([C@@H](C)CC)NC(=O)[C@@H]2CCCN2C(=O)CNC(=O)[C@H](CC(=O)O)NC(=O)[C@H](CO)NC(=O)CNC(=O)CC[C@@H](C(=O)N[C@@H](Cc2ccccc2)C(=O)N[C@@H](Cc2ccccc2)C(=O)N[C@@H](CC(N)=O)C(=O)N2CCC[C@H]2C(=O)N[C@@H](CC(N)=O)C(=O)NCC(=O)N[C@H](C(=O)N[C@@H](CCSC)C(=O)N[C@@H](Cc2c[nH]cn2)C(=O)N[C@@H](Cc2ccc(O)cc2)C(=O)NCC(=O)O)C(C)C)NC1=O [lassotide 15, klebsidin, reference compound] (GSDGPIIEFFNPNGVMHYG-OH; lactam N-8; C-terminus assumed) | > 10000 | > 10000 | > 10000 |  |  |  | 
CC[C@H](C)[C@H](NC(=O)[C@@H]1CCCN1C(=O)[C@H](CC(C)C)NC(=O)[C@H](CC(=O)O)NC(=O)CNC(=O)[C@H](CCCNC(=N)N)NC(=O)[C@@H](NC(=O)[C@H](Cc1ccc(O)cc1)NC(=O)[C@@H]1CCC(=O)NCC(=O)NCC(=O)N[C@@H](C)C(=O)NCC(=O)N[C@@H](Cc2c[nH]cn2)C(=O)N[C@@H](C(C)C)C(=O)N2CCC[C@H]2C(=O)N1)C(C)C)C(=O)N[C@@H](CO)C(=O)N[C@@H](Cc1ccccc1)C(=O)N[C@@H](Cc1ccc(O)cc1)C(=O)NCC(=O)O [lassotide 12] (GGAGHVPEYVRGDLPISFYG-OH; lactam N-8; C-terminus assumed) |  | 475 | 1 | 177 |  |  | 
CC(C)C[C@H](NC(=O)[C@H](CC(=O)O)NC(=O)CNC(=O)[C@H](CCCNC(=N)N)NC(=O)[C@@H](NC(=O)[C@H](Cc1ccccc1)NC(=O)[C@H](Cc1ccc(O)cc1)NC(=O)[C@@H]1CCC(=O)NCC(=O)NCC(=O)N[C@@H](C)C(=O)NCC(=O)N[C@@H](Cc2c[nH]cn2)C(=O)N[C@@H](C(C)C)C(=O)N2CCC[C@H]2C(=O)N1)C(C)C)C(=O)N[C@@H](Cc1ccc(O)cc1)C(=O)N[C@@H](CO)C(=O)N[C@@H](Cc1ccccc1)C(=O)N[C@@H](Cc1ccc(O)cc1)C(=O)NCC(=O)O [lassotide 25] (GGAGHVPEYFVRGDLYSFYG-OH; lactam N-8; C-terminus assumed) |  |  |  |  | 295 | 205 | 
CC[C@H](C)[C@H](NC(=O)[C@@H]1CCCN1C(=O)[C@H](C)NC(=O)[C@H](CC(=O)O)NC(=O)CNC(=O)[C@H](CCCNC(=N)N)NC(=O)[C@@H](NC(=O)[C@H](Cc1ccccc1)NC(=O)[C@H](Cc1ccc(O)cc1)NC(=O)[C@@H]1CCC(=O)NCC(=O)NCC(=O)N[C@@H](C)C(=O)NCC(=O)N[C@@H](Cc2c[nH]cn2)C(=O)N[C@@H](C(C)C)C(=O)N2CCC[C@H]2C(=O)N1)C(C)C)C(=O)N[C@@H](CO)C(=O)N[C@@H](Cc1ccccc1)C(=O)N[C@@H](Cc1ccc(O)cc1)C(=O)NCC(=O)O [lassotide 4] (GGAGHVPEYFVRGDAPISFYG-OH; lactam N-8; C-terminus assumed) |  |  |  |  | 436 | 109 | 
CC[C@H](C)[C@@H]1NC(=O)[C@H]([C@@H](C)CC)NC(=O)[C@@H]2CCCN2C(=O)CNC(=O)[C@H](CC(=O)O)NC(=O)[C@H](CO)NC(=O)CNC(=O)CC[C@@H](C(=O)N[C@@H](Cc2ccccc2)C(=O)N[C@@H](CCCNC(=N)N)C(=O)NCC(=O)N[C@@H](CC(=O)O)C(=O)N[C@@H](CC(C)C)C(=O)NCC(=O)N[C@H](C(=O)N[C@@H](CCSC)C(=O)N[C@@H](Cc2c[nH]cn2)C(=O)N[C@@H](Cc2ccc(O)cc2)C(=O)NCC(=O)O)C(C)C)NC1=O [lassotide 16] (GSDGPIIEFRGDLGVMHYG-OH; lactam N-8; C-terminus assumed) |  | 214 | 1060 | 30 |  |  | 
CC(C)C[C@H](NC(=O)[C@H](CC(=O)O)NC(=O)CNC(=O)[C@H](CCCNC(=N)N)NC(=O)[C@@H](NC(=O)[C@H](Cc1ccccc1)NC(=O)[C@H](Cc1ccc(O)cc1)NC(=O)[C@@H]1CCC(=O)NCC(=O)NCC(=O)N[C@@H](C)C(=O)NCC(=O)N[C@@H](Cc2c[nH]cn2)C(=O)N[C@@H](C(C)C)C(=O)N2CCC[C@H]2C(=O)N1)C(C)C)C(=O)N[C@@H](C)C(=O)N[C@@H](CO)C(=O)N[C@@H](Cc1ccccc1)C(=O)N[C@@H](Cc1ccc(O)cc1)C(=O)NCC(=O)O [lassotide 23] (GGAGHVPEYFVRGDLASFYG-OH; lactam N-8; C-terminus assumed) |  |  |  |  | 27 | 51 | 
CC[C@H](C)[C@H](NC(=O)[C@@H]1CCCN1C(=O)[C@H](CCSC)NC(=O)[C@H](CC(=O)O)NC(=O)CNC(=O)[C@H](CCCNC(=N)N)NC(=O)[C@@H](NC(=O)[C@H](Cc1ccccc1)NC(=O)[C@H](Cc1ccc(O)cc1)NC(=O)[C@@H]1CCC(=O)NCC(=O)NCC(=O)N[C@@H](C)C(=O)NCC(=O)N[C@@H](Cc2c[nH]cn2)C(=O)N[C@@H](C(C)C)C(=O)N2CCC[C@H]2C(=O)N1)C(C)C)C(=O)N[C@@H](CO)C(=O)N[C@@H](Cc1ccccc1)C(=O)N[C@@H](Cc1ccc(O)cc1)C(=O)NCC(=O)O [lassotide 5] (GGAGHVPEYFVRGDMPISFYG-OH; lactam N-8; C-terminus assumed) |  |  |  |  | 280 | 259 | 
CC[C@H](C)[C@H](NC(=O)[C@@H]1CCCN1C(=O)[C@H](CC(C)C)NC(=O)[C@H](CC(=O)O)NC(=O)CNC(=O)[C@H](CCCNC(=N)N)NC(=O)[C@@H](NC(=O)[C@H](Cc1ccccc1)NC(=O)[C@H](Cc1ccc(O)cc1)NC(=O)[C@@H]1CCC(=O)NCC(=O)NCC(=O)N[C@@H](C)C(=O)NCC(=O)N[C@@H](Cc2c[nH]cn2)C(=O)N[C@@H](C(C)C)C(=O)N2CCC[C@H]2C(=O)N1)C(C)C)C(=O)N[C@@H](CO)C(=O)N[C@@H](Cc1ccccc1)C(=O)N[C@@H](Cc1ccc(O)cc1)C(=O)NCC(=O)O [lassotide 2] (GGAGHVPEYFVRGDLPISFYG-OH; lactam N-8; C-terminus assumed) |  |  |  |  | 263 |  | 1
CC[C@H](C)[C@H](NC(=O)[C@@H]1CCCN1C(=O)[C@H](CC(C)C)NC(=O)[C@H](CC(=O)O)NC(=O)CNC(=O)[C@H](CCCNC(=N)N)NC(=O)[C@H](Cc1ccccc1)NC(=O)[C@H](Cc1ccc(O)cc1)NC(=O)[C@@H]1CCC(=O)NCC(=O)NCC(=O)N[C@@H](C)C(=O)NCC(=O)N[C@@H](Cc2c[nH]cn2)C(=O)N[C@@H](C(C)C)C(=O)N2CCC[C@H]2C(=O)N1)C(=O)N[C@@H](CO)C(=O)N[C@@H](Cc1ccccc1)C(=O)N[C@@H](Cc1ccc(O)cc1)C(=O)NCC(=O)O [lassotide 13] (GGAGHVPEYFRGDLPISFYG-OH; lactam N-8; C-terminus assumed) |  | 221 | 20 | 624 |  |  | 
CC[C@H](C)[C@@H]1NC(=O)[C@H](CO)NC(=O)CC[C@@H](C(=O)N[C@@H](CO)C(=O)N[C@@H](CCSC)C(=O)N[C@@H](CO)C(=O)N[C@@H](CO)C(=O)N[C@@H](CCC(N)=O)C(=O)N[C@H](C(=O)N[C@@H](Cc2ccc(O)cc2)C(=O)N[C@@H](Cc2c[nH]c3ccccc23)C(=O)N2CCC[C@H]2C(=O)O)[C@@H](C)O)NC(=O)[C@H](CCCNC(=N)N)NC(=O)[C@H](CC(C)C)NC(=O)CNC(=O)[C@H](CO)NC(=O)[C@H](CC(=O)O)NC(=O)CNC1=O [lassotide 17, caulonodin V, reference compound] (SIGDSGLRESMSSQTYWP-OH; lactam N-9; C-terminus assumed) |  | > 10000 | > 10000 | > 10000 |  |  | 
